The source of these data is patent publication US20150118165A1, “USE OF CYCLOHEXANOL ETHERS HAVING ANTIMICROBIAL PROPERTIES” (Merck Patent GmbH, priority 2012, published 2015).

The test system of data set [1] is Aspergillus brasiliensis. The data set is described as follows: Antimicrobial action, microbe count (procedure as Example 1, count after 48 h). The settings on record: for Δlog: count after 48 h vs t0; for Microbe count t24 h: count after 48 h. The data set is classed as cell-based. How it is done: (§1) For sample preparation, the substance I-2 being investigated is homogeneously dispersed in an amount of 1.0% in a water/ethanol mixture (12% of ethanol) (=sample). A suspension of Staphylococcus epidermidis (ATCC 12228) having an optical density of 1.0 in CASO broth (Merck 1.05459) is diluted 1:10000 with CASO broth. 500 μl of sample are added to 500 μl of microorganism suspension, and the mixture is incubated at 35° C. for 24 h or 48 h. After the incubation, the test batches are diluted to −6 in 10 unit steps, and 0.1 ml of each is plated-out on CASO agar (Merck 1.05458) and incubated at 35° C. for 24 h.
(§2) In order to determine the initial microbe count, 0.1 ml of the bacteria suspension used are plated-out on CASO agar (Merck 1.05458) and incubated at 35° C. for 24 h.
(§3) The colonies are subsequently counted, and the microbe count per ml is determined compared with the negative control (12% of ethanol in water).
(§4) Procedure in Accordance with Example 1
(§5) The concentrations indicated are the final use concentrations. In order to prepare the stock solution, double the final concentration are prepared in the solvent indicated. This is subsequently diluted 1:2 with the corresponding microbe suspension. In the case of Aspergillus brasiliensis, the microbe count determination is exceptionally carried out after 48 h, in the case of Malassezia furfur after 72 h.

Data set [2] concerns Echerichia coli. The experiment in a line: Antimicrobial action, microbe count (procedure as Example 1). The data set is classed as cell-based, Escherichia coli. Conditions: for Δlog: t24 h vs t0. The protocol: as §1, §2, §3, §4, §5
The subject of data set [3] is Serratia marcescens. Described as above. Conditions: for Δlog: t24 h vs t0. The data set is classed as cell-based. The protocol: as §1, §2, §3, §4, §5
In data set [4] the test system is Candida albicans. Described as above. The data set is classed as cell-based. The settings on record: for Δlog: t24 h vs t0. The protocol: as §1, §2, §3, §4, §5
The test system of data set [5] is Propionibacterium acnes. Described as above. The data set is classed as cell-based. Conditions: for Δlog: t24 h vs t0. The protocol: as §1, §2, §3, §4, §5
Data set [6] concerns Staphylococcus aureus. The description is as above. The data set is classed as cell-based. The settings on record: 1.0% in H2O(12% of ethanol). How it is done:
as §1, §2, §3, §4, §5

For data set [7], the system named is Corynebacterium xerosis. The description is as above. The data set is classed as cell-based. Conditions: 0.5% in H2O. How it is done: as §1, §2, §3, §4, §5
Data set [8] concerns Salmonella enterica. The data set is described as above. The data set is classed as cell-based. The settings on record: for Δlog: t24 h vs t0. How it is done: as §1, §2, §3, §4, §5
A short description of data set [9]: Measurement of density and viscosities (Ubbelohde viscometer) to estimate spreadability. The data set is classed as physicochemical. The protocol: After measurement of the densities and kinematic viscosities using an Ubbelohde viscometer, the following dynamic viscosities arise:
Kinematic viscosity of I-1: 15.2 mm^2/s Density of I-1: 0.9897 g/cm^3; 25° C.
Dynamic viscosity of I-1=kinematic viscosity of I-1×density I-1=15.0 [mPas]
Since spreadabilities and viscosities of cosmetic emollients correlate well, good spreadabilities can be concluded from the viscosities determined.

Data set [10] has as its system Malassezia furfur. The data set is described as follows: Antimicrobial action, microbe count (procedure as Example 1, count after 72 h). The data set is classed as cell-based. Conditions: 1.0% in H2O. The protocol: as §1, §2, §3, §4, §5
Data set [11] concerns Staphylococcus epidermidis (ATCC 12228). The data set is described as follows: Antimicrobial action, microbe count after incubation in CASO broth. The data set is classed as cell-based. The settings on record: sample 1.0% in water/ethanol (12% of ethanol), 500 µl sample + 500 µl suspension; 35° C., 24 h or 48 h; initial count 5.8 × 10^4. How it is done:
as §1, §2, §3

Where [12] appears, read: 0.25% in H2O, count t0 3.2 × 10^5.
Where [13] appears, read: 0.25% in H2O, count t0 1.3 × 10^6.

With `OCCOC1CCCCC1` [Substance I-1], the Δlog in data set [1] (1.0% in H2O(12% of ethanol)) is −0.90; in [2] (0.25% in H2O), “+3.40”; in data set [2] (0.8% in H2O(12% of ethanol)) it was −4.80; in data set [3] (0.5% in H2O), −1.23; in data set [3] (1.0% in H2O), −5.40; in [4] (0.25% in H2O), “+0.53”. The Δlog in data set [4] (1.0% in H2O(12% of ethanol)) was −3.78; in data set [5] (1.0% in H2O), −0.05; in [6] (t24 h vs t0), −2.46; in data set [7] (t24 h vs t0), “+0.30”; in [8] (0.5% in H2O), −2.05; in [8] (0.8% in H2O(12% of ethanol)) it was −4.11. The Δlog in data set [10] (count after 72 h vs t0) is listed as −2.60. The “Microbe count t24 h” value in [1] (1.0% in H2O(12% of ethanol), count t0 8.0 × 10^2) is given as 1.0 × 10^2; in [2] (setting [12]), 8.0 × 10^8; in [2] (0.8% in H2O(12% of ethanol), count t0 6.3 × 10^4), 0; in data set [3] (0.5% in H2O, count t0 2.9 × 10^5), 1.7 × 10^4; in [3] (1.0% in H2O, count t0 2.5 × 10^5), 0; in data set [4] (setting [13]), 4.3 × 10^6. For the same compound, the “Microbe count t24 h” value in data set [4] (1.0% in H2O(12% of ethanol), count t0 6.0 × 10^3) is 0; in data set [5] (1.0% in H2O, count t0 7.8 × 10^5), 7.0 × 10^5; in data set [6] (count t0 7.2 × 10^4) it was 2.5 × 10^2; in [7] (count t0 1.0 × 10^6), 2.0 × 10^6; in [8] (0.5% in H2O, count t0 1.0 × 10^6), 9.0 × 10^3; in data set [8] (0.8% in H2O(12% of ethanol), count t0 1.3 × 10^4), 0. Moreover, the “Microbe count t24 h” value in data set [10] (count t0 4.0 × 10^2, count after 72 h) was found to be 0. The Density in data set [9] (25° C.) was 0.9897 g/mL. In addition, the Kinematic viscosity in data set [9] (Ubbelohde viscometer) is on record as 15.2 mm^2/s. The Dynamic viscosity in data set [9] (kinematic viscosity × density) is given as 15.0 mPas.

In the case of `COC1CCC(O)CC1` (stereo not shown) [Substance I-2], the Final microbe count in data set [11] was 4.0 × 10^4 CFU/ml.

In the case of `OCCOC1CCC(OCCO)CC1` (stereo not shown) [Substance I-3, 2-[4-(2-hydroxyethoxy)cyclohexyloxy]ethanol], the “Microbe count t24 h” value in [1] (0.5% in H2O, count t0 2.8 × 10^4) is recorded as 1.6 × 10^4; in [1] (1.0% in H2O, count t0 2.8 × 10^4), 1.4 × 10^3; in data set [5] (0.5% in H2O, count t0 3.4 × 10^5), 4.0 × 10^7. The Δlog in data set [1] (0.5% in H2O, t0 2.8 × 10^4) is listed as −0.24; in data set [1] (1.0% in H2O) it was −1.30; in [5] (0.5% in H2O), “+2.07”.

Regarding `CC(O)COC1CCCCC1` (stereo not shown) [Substance I-9], the “Microbe count t24 h” value was 4.30 × 10^8 in data set [2] (setting [12]) and 1.4 × 10^6 in data set [4] (setting [13]). In addition, the Δlog entry in data set [2] (0.25% in H2O) was “+3.13”; in data set [4] (0.25% in H2O) it was “+0.04”.
